Measured values taken from article PMC11766795 (Marine Drugs, 2025).

Key:
MARV (Angola, IRF0202) = assay: cells; assay type: cell-based, Marburg virus; settings: Homo sapiens, Huh-7, 24 h, read-out: IC50 (µM) Infectious Virus, MARV
pseudotyped virus EBOV = assay: microbe, parasite or virus in culture; assay type: cell-based, Zaire ebolavirus; settings: for IC50: Zaire ebolavirus, TZM-bl, read-out: IC50 (µM) Pseudovirus, EBOV
pseudotyped MARV = assay: microbe, parasite or virus in culture; assay type: cell-based, Marburg marburgvirus; settings: for IC50: Orthomarburgvirus marburgense, TZM-bl, read-out: IC50 (µM) Pseudovirus, MARV
in vitro = settings: human
[1] = system: Wild-type EBOV (Makona C07 strain, IRF0192); assay: microbe, parasite or virus in culture; assay type: cell-based, Ebola virus; settings: Zaire ebolavirus, Huh-7, 48 h, read-out: IC50 (µM) Infectious Virus, EBOV
HIV strain, HXBc2 (HX) = assay type: cell-based, Human immunodeficiency virus
[2] = system: amphitropic murine leukemia virus (A-MLV); assay type: cell-based
[3] = system: vesicular stomatitis virus (VSV); assay type: cell-based
[4] = target: RBD of EBOV-GP (RBD-Fc fusion protein) (Zaire ebolavirus, UniProt Q05320); assay: biochemical; assay type: binding
Chain of RBD of EBOV-GP (RBD-Fc fusion protein) (Q05320 54-201 limits assumed): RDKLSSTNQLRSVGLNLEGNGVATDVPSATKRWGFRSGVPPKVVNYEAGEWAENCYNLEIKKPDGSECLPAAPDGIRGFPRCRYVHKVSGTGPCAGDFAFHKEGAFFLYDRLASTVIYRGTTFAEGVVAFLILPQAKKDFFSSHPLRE

SMILES | IC50 (MARV (Angola, IRF0202)) [µM] | Activity in screening against pseudotyped EBOV (pseudotyped virus EBOV) | SI, Selectivity index (CC50/IC50), EBOV (pseudotyped virus EBOV) | IC50 (pseudotyped virus EBOV) [µM] | Activity in screening against pseudotyped MARV (pseudotyped MARV) | SI, Selectivity index (CC50/IC50), MARV (pseudotyped MARV) | IC50 (pseudotyped MARV) [µM] | CC50 (in vitro) [µM] | IC50 [1] [µM] | Neutralization of pseudotyped HIV (specificity) (HIV strain, HXBc2 (HX)) | Neutralization of pseudotyped EBOV in specificity test (pseudotyped virus EBOV) | Neutralization of pseudotyped MARV in specificity test (pseudotyped MARV) | Neutralization of pseudotyped A-MLV (specificity) [2] | Neutralization of pseudotyped VSV (specificity) [3] | Kd [4] [µM]
CC(=O)OCC(=O)OC1CCC2(C)C(CCC3c4c([nH]c5ccccc45)CC32C)C1(C)CCC=C(C)C (centres unmarked) [Compound W27, Fusaindoterpene B] | 83.3 | modest activities | 7 | ~2.82 | modest activities | 6 | 2.63 | 16.3 | 33 |  |  |  |  |  | 
CC(=O)N[C@H](Cc1c[nH]c2ccccc12)C(=O)O [N-Ac-D-tryptophan, N-Acetyl-D-Tryptophan, reference compound] |  | some activity |  | > 48 |  |  |  | > 60 |  |  |  |  |  |  | 
C[C@@]12NC(=O)[C@H](Cc3c1[nH]c1ccccc31)n1c2nc2ccccc2c1=O [Compound W12, Fumiquinazoline J] | 64.5 | modest activities | 15 | ~1.68 | modest activities | 26 | 0.96 | 24.8 | 15.3 | neither of them did so | neutralizing | neutralizing | neither of them did so | neither of them did so | 91.4
CC(=O)N[C@@H](Cc1c[nH]c2ccccc12)C(=O)O [N-Ac-L-tryptophan, N-Acetyl-L-Tryptophan, reference compound] |  | some activity |  | > 48 |  |  |  | > 60 |  |  |  |  |  |  | 
CC(C)=CCC[C@]1(C)[C@@H](O)CC[C@@]2(C)[C@H]1CC[C@H]1Cc3c([nH]c4ccccc34)[C@@]12C [Compound W26, Emindole SB] | 95.7 | modest activities | 7 | ~3.17 | modest activities | 10 | 2.15 | 20.9 | 49.8 | neither of them did so | neutralizing | neutralizing | neither of them did so | neither of them did so | 
